“Also recorded” adds a separate entry of the source.
Tests used:
[1] = set-up: method as in PMID 15972077; details: animal feed naturally contaminated with ZEN and α-ZEL; cited from earlier work
[2] = ZEN concentrations and carryover factor in intestinal tissues and liver of pre-pubertal gilts exposed per os (HPLC); format: in vivo; details: gilts given ZEN 40 μg/kg BW daily per os, 42 days; detection limits 0.003 µg·g^−1 α-ZEL, 0.002 µg·g^−1 β-ZEL
Experimental: The animals were divided into an experimental group (E, n = 18) and a control group (C, n = 21). Group E animals were orally administered ZEN at 40 μg/kg BW. Group C pigs were fed a placebo. The animals were fed complete diets in a restricted feeding regimen (Table 1). The daily dose of ZEN (40 µg/kg BW) was administered to each animal individually, which corresponds to exposure to 957–1014 µg ZEN/kg of a complete diet, depending on daily feed intake. Zearalenone was biosynthesized, purified and standardized by the Department of Chemistry of the Poznań University of Life Sciences. The experiment covered a period of 42 days. The mycotoxin was administered per os daily, in gelatine capsules before the morning feeding. The ZEN dose was adjusted to the body weight of the experimental animals. The mycotoxin was administered in capsules to prevent problems associated with uneven feed intake. Mycotoxin samples were diluted in 300 μL of 96% ethyl alcohol (96% ethyl alcohol, SWW 2442-90, Polskie Odczynniki Chemiczne SA, Gliwice, Poland) to the required dose level (based on body weight). Final solutions were stored at room temperature for 12 h to evaporate the solvent. The animals were weighed every 7 days to update mycotoxin doses for each gilt. Three animals from the experimental group and the control group each were sacrificed on Days 1, 7, 14, 21, 28, 35 and 42 (a total of 6 gilts in each week of exposure), excluding day 1, when only 3 control group animals were scarified. Every week, tissue samples were collected from the porcine gastrointestinal tract (duodenum, first and middle sections, jejunum, ileum, cecum, ascending colon, transverse colon, descending colon, middle section, and the liver, left lobe). Tissue samples were collected from the whole intestinal cross-sections.
Post-mortem tissue samples were collected from the duodenum, jejunum, ileum, cecum, ascending colon, transverse colon, descending colon and the liver after rinsing with phosphate buffer. Pure tissues were stored at −80 °C until shredding and extraction.
Tissue samples (2 g) were homogenized with 9 cm^3 of methanol for 4 min; they were transferred to centrifuge tubes with a minimal amount of the sediment, and the remainder was combined with 5 cm^3 of methanol and repeatedly homogenized. The extracts were combined and centrifuged for 10 min. The supernatant was transferred to a graduated test tube; its volume was read from the scale, and it was evaporated under a stream of nitrogen at a temperature of 60 °C to 0.1–0.2 cm^3 of water. The evaporated product was combined with 2 cm^3 of deionized water, 2 cm^3 of 0.2 M sodium acetate and 500 µL of […] solution. After 16 h of incubation at 37 °C, the reaction was stopped by adding 0.5 cm^3 of acetonitrile. The mixture was quantitatively transferred to a centrifuge tube; it was combined with 10 cm^3 of deionized water and centrifuged for 10 min at 3500 rpm. The supernatant was applied to the Zearala-Test™ column at the rate of 1–2 drops per second. Mycotoxins were eluted from the column with 1.5 mL of methanol; the solvent was evaporated, and the residue was reconstituted with 1 mL of methanol for HPLC analysis.
The concentrations of ZEN and its derivatives were determined by HPLC with the use of the Waters 2695 Separations Module, Waters 2475 Multi λ Fluorescence Detector and Waters 2996 Array Detector. Excitation and emission wavelengths were 274 and 440 nm, respectively. The reverse-phase column was C-18 Nova Pak (3.9 × 150 mm), and the mobile phase was acetonitrile-water-methanol (46:46:8, v/v/v) at a flow rate of 0.5 mL·min^−1. The mycotoxins were quantified by measuring the […] of the peaks based on the relevant calibration curves (correlation coefficient of 0.9996 for ZEN, 0.9989 for α-ZEL and 0.9976 for β-ZEL). Detection limits were determined at 0.001 µg·g^−1 for ZEN, 0.003 µg·g^−1 for α-ZEL and 0.002 µg·g^−1 for β-ZEL. […]

[3] = relative to parent compound ZEN; cited from earlier work

| SMILES | absorbed from the duodenum [1] | concentrations of ZEN metabolites in the digestive tract and the liver [2] | estrogenic activity in comparison to ZEN [3] |
| --- | --- | --- | --- |
| C[C@H]1CCC[C@H](O)CCC/C=C/c2cc(O)cc(O)c2C(=O)O1 [α-ZEL, α-zearalenol] | 65% | below the sensitivity of the method | three-fold or even four-fold higher; also recorded: three- to four-fold higher |
| C[C@H]1CCC[C@@H](O)CCC/C=C/c2cc(O)cc(O)c2C(=O)O1 [β-ZEL, β-zearalenol] |  | below the sensitivity of the method |  |
